Data taken from patent US20190328687A1, “Antibacterial Compounds” (priority 2014, published 2019).
Like-named read-outs stand apart in the source and are kept apart here. Peptide text beside a SMILES is read from it. * marks the point of attachment. βNA = c1ccc2cc(N*)ccc2c1

How the values were obtained:
[1] = system: efflux pumps over-expressed in P. aeruginosa; details: growth inhibition in presence of levofloxacin; cited from earlier work
AcrAB-TolC = AcrAB-TolC (Escherichia coli, UniProt P02930+P31224); details: cited from earlier work
Chain of AcrAB-TolC (P31224 whole entry): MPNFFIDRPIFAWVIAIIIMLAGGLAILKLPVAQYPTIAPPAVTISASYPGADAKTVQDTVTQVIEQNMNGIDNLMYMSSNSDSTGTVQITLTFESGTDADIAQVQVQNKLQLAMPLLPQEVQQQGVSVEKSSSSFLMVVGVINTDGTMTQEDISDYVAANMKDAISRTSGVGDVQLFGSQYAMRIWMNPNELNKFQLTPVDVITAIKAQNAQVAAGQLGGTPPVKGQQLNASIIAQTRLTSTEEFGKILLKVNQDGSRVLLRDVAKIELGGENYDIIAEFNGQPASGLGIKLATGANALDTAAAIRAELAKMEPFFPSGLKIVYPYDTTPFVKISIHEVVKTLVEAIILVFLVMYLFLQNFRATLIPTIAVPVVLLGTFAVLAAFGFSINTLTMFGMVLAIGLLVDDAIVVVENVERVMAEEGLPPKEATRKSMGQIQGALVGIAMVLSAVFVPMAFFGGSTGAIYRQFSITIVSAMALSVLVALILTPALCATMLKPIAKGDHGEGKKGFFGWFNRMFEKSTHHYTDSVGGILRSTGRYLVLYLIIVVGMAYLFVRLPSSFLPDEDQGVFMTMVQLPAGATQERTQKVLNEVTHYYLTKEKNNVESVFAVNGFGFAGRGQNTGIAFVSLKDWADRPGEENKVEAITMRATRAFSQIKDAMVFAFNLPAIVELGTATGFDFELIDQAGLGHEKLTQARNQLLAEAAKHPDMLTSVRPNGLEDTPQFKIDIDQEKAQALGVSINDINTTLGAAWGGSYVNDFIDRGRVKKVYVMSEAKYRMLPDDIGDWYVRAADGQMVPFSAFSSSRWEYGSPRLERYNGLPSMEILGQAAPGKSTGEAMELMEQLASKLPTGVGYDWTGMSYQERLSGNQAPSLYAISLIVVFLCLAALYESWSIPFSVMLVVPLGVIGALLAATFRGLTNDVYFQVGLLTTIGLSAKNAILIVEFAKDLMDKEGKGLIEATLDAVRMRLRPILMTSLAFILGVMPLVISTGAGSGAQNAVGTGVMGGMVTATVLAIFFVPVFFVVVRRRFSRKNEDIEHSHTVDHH
Chain of AcrAB-TolC (P02930 23-493): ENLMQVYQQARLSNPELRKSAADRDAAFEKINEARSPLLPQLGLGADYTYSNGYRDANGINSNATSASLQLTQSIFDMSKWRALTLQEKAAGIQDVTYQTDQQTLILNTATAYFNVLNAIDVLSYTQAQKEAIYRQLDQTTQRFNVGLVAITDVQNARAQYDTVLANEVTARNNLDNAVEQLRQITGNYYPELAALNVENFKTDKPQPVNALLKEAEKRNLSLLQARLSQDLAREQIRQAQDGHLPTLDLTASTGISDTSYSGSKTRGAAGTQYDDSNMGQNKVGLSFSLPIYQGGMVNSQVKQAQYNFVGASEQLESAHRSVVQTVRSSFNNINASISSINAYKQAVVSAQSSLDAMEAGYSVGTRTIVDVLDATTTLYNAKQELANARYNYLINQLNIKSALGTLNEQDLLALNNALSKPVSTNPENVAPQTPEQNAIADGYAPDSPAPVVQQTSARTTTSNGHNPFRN
Chain of AcrAB-TolC (P0AE06 25-397, further chain): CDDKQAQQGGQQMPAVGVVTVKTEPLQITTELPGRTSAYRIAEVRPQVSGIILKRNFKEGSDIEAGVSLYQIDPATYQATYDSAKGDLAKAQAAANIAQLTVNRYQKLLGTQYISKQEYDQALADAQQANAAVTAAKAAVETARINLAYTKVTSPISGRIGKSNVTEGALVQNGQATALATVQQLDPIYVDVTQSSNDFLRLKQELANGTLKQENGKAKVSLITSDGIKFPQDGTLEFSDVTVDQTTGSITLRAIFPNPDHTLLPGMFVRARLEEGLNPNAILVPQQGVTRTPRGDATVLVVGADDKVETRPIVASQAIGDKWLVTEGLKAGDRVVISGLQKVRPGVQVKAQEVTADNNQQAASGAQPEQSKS

[2] = system: methicillin resistant Staphylococcus aureus (MRSA; ATCC43300); experiment: Heatmap growth inhibition assay, MRSA; details: single agent
E. coli 7KO = experiment: Cell sensitivity assay (growth, OD600)
Experimental: (§1) Overnight cultures of E. coli 7KO or 7KOΔtolC strains are used to inoculate fresh aliquots of LB media which are then incubated at 30° C., 200 rpm for 2.5 h. 40 μL aliquots of each culture are subsequently added to 40 μL of LB media containing 2× the desired final niclosamide concentration (i.e., resulting in a final 2-fold dilution series from 5 μM down to 20 nM) or a 0 μM control in a 384-well microplate. The plate is incubated at 30° C., 200 rpm for 4 h. Culture turbidity is monitored by optical density at 600 nm in order to calculate percentage growth relative to the 0 μM control for each strain. Data are the mean of at least two independent experiments±SEM.
Overnight cultures of E. coli 7KO are used to inoculate fresh aliquots of LB media which are then incubated at 30° C., 200 rpm for 2.5 h. 40 μL aliquots of each culture are subsequently added to 40 μL of LB media containing 2× the desired final niclosamide concentration (i.e., resulting in a final 2-fold dilution series from 10 μM down to 160 nM) or a 0 μM control, as well as either 0 μM, 25 μM or 50 μM PaβN in a 384-well microplate. An overnight culture of 7KOΔtolC is treated in the same manner, but without addition of PaβN. […] Culture turbidity is monitored by optical density at 600 nm in order to calculate percentage growth relative to the 0 μM niclosamide control for each series. […]

M. tuberculosis = details: cited from earlier work
pyruvate oxidoreductases = details: cited from earlier work
E. coli 7KOΔtolC (DE3) = experiment: 7KOΔtolC(DE3) cell sensitivity assay
Experimental: Overnight cultures of E. coli 7KOΔtolC (DE3) strains overexpressing either E. coli NfsA (NfsA_Ec), E. coli NfsB (NfsB_Ec) or containing a plasmid only (pET28) control are used to inoculate fresh aliquots of assay media (LB media supplemented with 50 μg·mL^−1 kanamycin and 50 μM IPTG) which are incubated at 30° C., 200 rpm for 2.5 h. 40 μL aliquots of each culture are then added to 40 μL aliquots of assay media containing 2× the desired final concentration of nitazoxanide (i.e., resulting in a final 2-fold dilution series from 20 down to 2.5 μM) or a 0 μM media only control. The plate is then incubated at 30° C., 200 rpm for 4 h. Culture turbidity is monitored by optical density at 600 nm in order to calculate percentage growth relative to the 0 μM control for each strain. Data are the mean of at least two independent experiments±SEM.
Individual wells of a 96-well microtitre plate containing 100 μL LB supplemented with 50 μg mL^−1 are inoculated in duplicate with 7KOΔtolC(DE3) strains overexpressing E. coli nfsA, E. coli nfsB or a pET28 empty plasmid control. Strains are incubated overnight at 30° C. in a Heidolph titramax platform shaker at 900 rpm. 30 μL of each overnight culture is used to inoculate duplicate cultures of 600 μL LB supplemented with 50 μg mL^−1 kanamycin and 50 μM IPTG in a 96 well deep culture plate (Axygen). Cultures are incubated at 30° C., 1200 rpm for 2.5 h. 40 μL aliquots from each culture are then added to individual wells of a sterile 384 well plate, containing 40 μL LB medium supplemented with 100 μg mL^−1 kanamycin, 50 μM IPTG and serial dilutions of nitazoxanide, including 0 μM controls. Each nitroreductase over-expression strain is tested in duplicate (independent replicates). Culture turbidity is monitored by optical density at 600 nm 4 h post-challenge. Percentage growth values are calculated by comparison of the nitazoxanide-challenged cells with the unchallenged control, after subtracting the initial absorbance values (t=0 h). Microtitre plate absorbance readings are measured using an Eon Biotek Reader (BioTek Instruments Inc.).

[3] = system: Staphylococcus aureus ATCC 43300 (MRSA); experiment: Growth inhibition of Gram positive bacteria: IC50 measurements; details: ATCC43300|MRSA, 4 h, read-out: IC50 against Staphylococcus aureus ATCC 43300 (MRSA)
Experimental: (§2) Data are the mean of two independent replicates (using duplicate technical replicates for each independent experiment) and error bars indicate standard error of the mean.
(§3) Data are the mean of two technical replicates.
(§4) 15 mL tubes containing 2 mL tryptic soy broth (TSB) were inoculated with the Gram positive bacterial strains Staphylococcus aureus ATCC 43300 (MRSA), Bacillus thuringiensis P.1.IPS-80 serovar israelensis, or Listeria welshimeri ATCC 35897. Strains were incubated overnight at 37° C. with shaking at 200 rpm. The following day, the overnight cultures were diluted in fresh TSB to give an OD600 of approximately 0.3. Duplicate 40 μL aliquots of this were then added to individual wells of a sterile 384 well plate, containing 40 μL TSB medium supplemented with serial dilutions of 2× niclosamide or nitazoxanide, including 0 μM controls. Culture turbidity was monitored by optical density at 600 nm at 4 h post-challenge. Percentage growth inhibition values were calculated by comparison of the niclosamide- or nitazoxanide-challenged cells with the unchallenged control for each strain, after subtracting the initial absorbance values (t=0 h). […]

[4] = system: Listeria welshimeri ATCC 35897; experiment: as above; details: ATCC35897, 4 h, read-out: IC50 against Listeria welshimeri ATCC 35897
Experimental: as §2, §3, §4

[5] = system: E. coli 7KOΔtolC strains over-expressing nitroreductase candidates from plasmid pUCX; experiment: Cell sensitivity assay, nitroreductase over-expressing strains; type: cell-based; details: for IC50: Escherichia coli
E. coli 6KO = experiment: Toxicity to E. coli host strain; type: cell-based; details: even if not over-expressing an active nitroreductase
Excerpt: Without wishing to be bound by theory, the applicants hypothesise that a key difference between the niclosamide-sensitive SOS-R2 and niclosamide-resistant 6KO strains is that the former carry a deletion of the tolC gene, which encodes an efflux pump capable of exporting numerous xenobiotic and other compounds directly across both cell membranes of Gram negative bacterial cells.

[6] = system: Mycobacterium tuberculosis; details: cited from earlier work
[7] = system: quorum sensing system in Pseudomonas aeruginosa; details: among FDA-approved drugs tested; cited from earlier work
E. coli 7KOΔtolC = experiment: Cell sensitivity assay (growth, OD600)
Experimental: as §1
Overnight cultures of E. coli 7KOΔtolC are used to inoculate fresh aliquots of LB media which are incubated at 30° C., 200 rpm for 2.5 h. […] Culture turbidity is monitored by optical density at 600 nm in order to calculate percentage growth relative to the 0 μM control for each strain. […]
This procedure applies to all experiments yielding growth curves for Gram negative bacterial strains generated in the presence of niclosamide or 2-chloro-4-nitroaniline, unless noted otherwise below or in the individual Figure Descriptions. […] Culture turbidity is monitored by optical density at 600 nm (OD600) 4 h post-challenge. […]

[8] = Heatmap growth inhibition assay, drug-resistant clinical isolates; details: read-out: IC50 against clinical isolates
Salmonella typhimurium = details: cited from earlier work

SMILES: N=C(N)NCCC[C@H](NC(=O)[C@@H](N)Cc1ccccc1)C(=O)Nc1ccc2ccccc2c1 [PAβN, phenylalanine-arginine β-napthylamide] (H-Phe-Arg-βNA)
- Activity against P. aeruginosa efflux pumps [1]: active against each of the efflux pumps
- Activity against AcrAB-TolC (AcrAB-TolC): active against AcrAB-TolC
- Sensitivity of MRSA (concentration level) [2]: micromolar levels
- Effect of PAβN on niclosamide sensitivity (E. coli 7KO; 25 μM or 50 μM PAβN, niclosamide 10 μM down to 156 nM): promote niclosamide sensitivity in the 7KO strain in a dose-dependent manner

SMILES: CC(=O)Oc1ccccc1C(=O)Nc1ncc([N+](=O)[O-])s1 [Nitazoxanide, 2-acetyloxy-N-(5-nitro 2-thiazolyl)benzamide]
- Effect on membrane potential (M. tuberculosis): disrupts membrane potential and pH homeostasis
- Effect on membrane potential (M. tuberculosis; listed as nitazoxanide): uncoupled the membrane potential
- Inhibition of pyruvate oxidoreductases (pyruvate oxidoreductases): inhibits pyruvate oxidoreductases
- Toxicity relative to niclosamide (less toxic) (E. coli 7KOΔtolC (DE3); 7KOΔtolC (DE3) cells): approximately 2 orders of magnitude
- Effect of NfsA and NfsB over-expression on toxicity (E. coli 7KOΔtolC (DE3); 7KOΔtolC (DE3), pET28 NfsA or NfsB): able to defend against nitazoxanide toxicity
- IC50 (E. coli 7KOΔtolC (DE3); Escherichia coli, 4 h, read-out: IC50 in 7KOΔtolC (DE3) cells): 5200 nM
- IC50 [3]: 2900 nM
- IC50 [4]: 8780 nM

SMILES: O=C(Nc1ccc([N+](=O)[O-])cc1Cl)c1cc(Cl)ccc1O [Niclosamide, N-(2′-chloro-4′-nitrophenyl)-5-chlorosalicylamide]
- IC50, strains over-expressing NfsA, NfsB and AzoR ([5]; 7KOΔtolC, pUCX NfsA, NfsB or AzoR): low micromolar
- IC50 ([5]; read-out: IC50, MdaB over-expressing strain): 83 nM
- IC50 ([5]; read-out: IC50, NemA over-expressing strain): 300 nM
- IC50 ([5]; read-out: IC50, empty plasmid control strain): 47 nM
- Toxicity to 6KO strain (E. coli 6KO): no longer found to be toxic
- MIC [6]: 0.5 to 1 µg/mL
- Activity against non-replicating M. tuberculosis ([6]; grown in low oxygen conditions): active
- Effect on membrane potential (M. tuberculosis): uncoupled the membrane potential
- Anti-quorum sensing activity [7]: highest anti-quorum sensing activity
- Sensitivity of MRSA (concentration level) [2]: nanomolar concentrations
- IC50 (E. coli 7KOΔtolC; Escherichia coli, 4 h, read-out: IC50 for 7KOΔtolC): 120 nM
- IC50 (E. coli 7KO; Escherichia coli, 7KO, 4 h, read-out: IC50 for 7KO): > 5000 nM
- IC50 [3]: 132 nM
- IC50 [4]: 284 nM
- IC50 [8]: > 20000 nM

SMILES: O=C(O)c1cc(Cl)ccc1O [5-chlorosalicyclic acid]
- Mutagenicity (Salmonella typhimurium): non-mutagenic

SMILES: Nc1ccc([N+](=O)[O-])cc1Cl [2-chloro-4-nitroaniline]
- Mutagenicity (Salmonella typhimurium): mutagenic product
- Toxicity relative to niclosamide (E. coli 7KOΔtolC; growth inhibition of 7KOΔtolC, FIG. 15): at least three orders of magnitude less toxic than niclosamide
